From publication PMC11842588, “A first-in-class selective inhibitor of ERK1/2 and ERK5 overcomes drug resistance with a single-molecule strategy” (Signal Transduction and Targeted Therapy, 2025)

Tests used:
Test in all cases: Kinase profiling
Assay type in all cases: biochemical
ALK1(h) = molecular target: T1, ALK1(h) (Homo sapiens, UniProt P37023)
T1 construct: purchased Eurofins Cerep SA (KinaseProfiler)
Experimental: (§1) 380 kinases inhibitory activities of SKLB-D18 were conducted by Eurofins Cerep SA. The result was illustrated by kinase tree (http://www.kinhub.org/kinmap/).

CDK1/cyclinB(h) = molecular target: T2, CDK1/cyclinB(h) (Homo sapiens, UniProt P06493)
T2 construct: purchased Eurofins Cerep SA (KinaseProfiler)
Experimental: as §1

CDKL4(h) = molecular target: T3, CDKL4(h) (Homo sapiens, UniProt Q5MAI5)
T3 construct: purchased Eurofins Cerep SA (KinaseProfiler)
Experimental: as §1

CK1ε(h) = molecular target: T4, CK1ε(h) (Homo sapiens, UniProt P49674)
T4 construct: purchased Eurofins Cerep SA (KinaseProfiler)
Experimental: as §1

CLK2(h) = molecular target: T5, CLK2(h) (Homo sapiens, UniProt P49760)
T5 construct: purchased Eurofins Cerep SA (KinaseProfiler)
Experimental: as §1

CLK4(h) = molecular target: T6, CLK4(h) (Homo sapiens, UniProt Q9HAZ1)
T6 construct: purchased Eurofins Cerep SA (KinaseProfiler)
Experimental: as §1

CaMKIIα(h) = molecular target: T7, CaMKIIα(h) (Homo sapiens, UniProt Q9UQM7)
T7 construct: purchased Eurofins Cerep SA (KinaseProfiler)
Experimental: as §1

CaMKIV(h) = molecular target: T8, CaMKIV(h) (Homo sapiens, UniProt Q16566)
T8 construct: purchased Eurofins Cerep SA (KinaseProfiler)
Experimental: as §1

CaMKIγ(h) = molecular target: T9, CaMKIγ(h) (Homo sapiens, UniProt Q96NX5)
T9 construct: purchased Eurofins Cerep SA (KinaseProfiler)
Experimental: as §1

CaMKIδ(h) = molecular target: T10, CaMKIδ(h) (Homo sapiens, UniProt Q8IU85)
T10 construct: purchased Eurofins Cerep SA (KinaseProfiler)
Experimental: as §1

DCAMKL2(h) = molecular target: T11, DCAMKL2(h) (Homo sapiens, UniProt Q8N568)
T11 construct: purchased Eurofins Cerep SA (KinaseProfiler)
Experimental: as §1

DDR1(h) = molecular target: T12, DDR1(h) (Homo sapiens, UniProt Q08345)
T12 construct: purchased Eurofins Cerep SA (KinaseProfiler)
Experimental: as §1

DMPK(h) = molecular target: T13, DMPK(h) (Homo sapiens, UniProt Q09013)
T13 construct: purchased Eurofins Cerep SA (KinaseProfiler)
Experimental: as §1

DYRK3(h) = molecular target: T14, DYRK3(h) (Homo sapiens, UniProt O43781)
T14 construct: purchased Eurofins Cerep SA (KinaseProfiler)
Experimental: as §1

EphA3(h) = molecular target: T15, EphA3(h) (Homo sapiens, UniProt P29320)
T15 construct: purchased Eurofins Cerep SA (KinaseProfiler)
Experimental: as §1

EphB1(h) = molecular target: T16, EphB1(h) (Homo sapiens, UniProt P54762)
T16 construct: purchased Eurofins Cerep SA (KinaseProfiler)
Experimental: as §1

Fer(h) = molecular target: T17, Fer(h) (Homo sapiens, UniProt P16591)
T17 construct: purchased Eurofins Cerep SA (KinaseProfiler)
Experimental: as §1

GAK(h) = molecular target: T18, GAK(h) (Homo sapiens, UniProt O14976)
T18 construct: purchased Eurofins Cerep SA (KinaseProfiler)
Experimental: as §1

GRK2(h) = molecular target: T19, GRK2(h) (Homo sapiens, UniProt P25098)
T19 construct: purchased Eurofins Cerep SA (KinaseProfiler)
Experimental: as §1

GRK4(h) = molecular target: T20, GRK4(h) (Homo sapiens, UniProt P32298)
T20 construct: purchased Eurofins Cerep SA (KinaseProfiler)
Experimental: as §1

IR(h) = molecular target: T21, IR(h) (Homo sapiens, UniProt P06213)
T21 construct: purchased Eurofins Cerep SA (KinaseProfiler)
Experimental: as §1

IRAK4(h) = molecular target: T22, IRAK4(h) (Homo sapiens, UniProt Q9NWZ3)
T22 construct: purchased Eurofins Cerep SA (KinaseProfiler)
Experimental: as §1

JNK1α1(h) = molecular target: T23, JNK1α1(h) (Homo sapiens, UniProt P45983)
T23 construct: purchased Eurofins Cerep SA (KinaseProfiler)
Experimental: as §1

LIMK2(h) = molecular target: T24, LIMK2(h) (Homo sapiens, UniProt P53671)
T24 construct: purchased Eurofins Cerep SA (KinaseProfiler)
Experimental: as §1

Lck(h) = molecular target: T25, Lck(h) (Homo sapiens, UniProt P06239)
T25 construct: purchased Eurofins Cerep SA (KinaseProfiler)
Experimental: as §1

MEK1(h) = molecular target: T26, MEK1(h) (Homo sapiens, UniProt Q02750)
T26 construct: purchased Eurofins Cerep SA (KinaseProfiler)
Experimental: as §1

MLK4(h) = molecular target: T27, MLK4(h) (Homo sapiens, UniProt Q5TCX8)
T27 construct: purchased Eurofins Cerep SA (KinaseProfiler)
Experimental: as §1

MST4(h) = molecular target: T28, MST4(h) (Homo sapiens, UniProt Q9P289)
T28 construct: purchased Eurofins Cerep SA (KinaseProfiler)
Experimental: as §1

PDGFRβ(h) = molecular target: T29, PDGFRβ(h) (Homo sapiens, UniProt P09619)
T29 construct: purchased Eurofins Cerep SA (KinaseProfiler)
Experimental: as §1

PKA(h) = molecular target: T30, PKA(h) (Homo sapiens, UniProt P17612)
T30 construct: purchased Eurofins Cerep SA (KinaseProfiler)
Experimental: as §1

PKCγ(h) = molecular target: T31, PKCγ(h) (Homo sapiens, UniProt P05129)
T31 construct: purchased Eurofins Cerep SA (KinaseProfiler)
Experimental: as §1

PKCμ(h) = molecular target: T32, PKCμ(h) (Homo sapiens, UniProt Q15139)
T32 construct: purchased Eurofins Cerep SA (KinaseProfiler)
Experimental: as §1

PhKγ2(h) = molecular target: T33, PhKγ2(h) (Homo sapiens, UniProt P15735)
T33 construct: purchased Eurofins Cerep SA (KinaseProfiler)
Experimental: as §1

Rsk1(h) = molecular target: T34, Rsk1(h) (Homo sapiens, UniProt Q15418)
T34 construct: purchased Eurofins Cerep SA (KinaseProfiler)
Experimental: as §1

SLK(h) = molecular target: T35, SLK(h) (Homo sapiens, UniProt Q9H2G2)
T35 construct: purchased Eurofins Cerep SA (KinaseProfiler)
Experimental: as §1

STK32A(h) = molecular target: T36, STK32A(h) (Homo sapiens, UniProt Q8WU08)
T36 construct: purchased Eurofins Cerep SA (KinaseProfiler)
Experimental: as §1

STK32B(h) = molecular target: T37, STK32B(h) (Homo sapiens, UniProt Q9NY57)
T37 construct: purchased Eurofins Cerep SA (KinaseProfiler)
Experimental: as §1

STK32C(h) = molecular target: T38, STK32C(h) (Homo sapiens, UniProt Q86UX6)
T38 construct: purchased Eurofins Cerep SA (KinaseProfiler)
Experimental: as §1

TSSK3(h) = molecular target: T39, TSSK3(h) (Homo sapiens, UniProt Q96PN8)
T39 construct: purchased Eurofins Cerep SA (KinaseProfiler)
Experimental: as §1

ZAK(h) = molecular target: T40, ZAK(h) (Homo sapiens, UniProt Q9NYL2)
T40 construct: purchased Eurofins Cerep SA (KinaseProfiler)
Experimental: as §1

p70S6Kβ(h) = molecular target: T41, p70S6Kβ(h) (Homo sapiens, UniProt Q9UBS0)
T41 construct: purchased Eurofins Cerep SA (KinaseProfiler)
Experimental: as §1

T21 sequence (P06213 28-1382): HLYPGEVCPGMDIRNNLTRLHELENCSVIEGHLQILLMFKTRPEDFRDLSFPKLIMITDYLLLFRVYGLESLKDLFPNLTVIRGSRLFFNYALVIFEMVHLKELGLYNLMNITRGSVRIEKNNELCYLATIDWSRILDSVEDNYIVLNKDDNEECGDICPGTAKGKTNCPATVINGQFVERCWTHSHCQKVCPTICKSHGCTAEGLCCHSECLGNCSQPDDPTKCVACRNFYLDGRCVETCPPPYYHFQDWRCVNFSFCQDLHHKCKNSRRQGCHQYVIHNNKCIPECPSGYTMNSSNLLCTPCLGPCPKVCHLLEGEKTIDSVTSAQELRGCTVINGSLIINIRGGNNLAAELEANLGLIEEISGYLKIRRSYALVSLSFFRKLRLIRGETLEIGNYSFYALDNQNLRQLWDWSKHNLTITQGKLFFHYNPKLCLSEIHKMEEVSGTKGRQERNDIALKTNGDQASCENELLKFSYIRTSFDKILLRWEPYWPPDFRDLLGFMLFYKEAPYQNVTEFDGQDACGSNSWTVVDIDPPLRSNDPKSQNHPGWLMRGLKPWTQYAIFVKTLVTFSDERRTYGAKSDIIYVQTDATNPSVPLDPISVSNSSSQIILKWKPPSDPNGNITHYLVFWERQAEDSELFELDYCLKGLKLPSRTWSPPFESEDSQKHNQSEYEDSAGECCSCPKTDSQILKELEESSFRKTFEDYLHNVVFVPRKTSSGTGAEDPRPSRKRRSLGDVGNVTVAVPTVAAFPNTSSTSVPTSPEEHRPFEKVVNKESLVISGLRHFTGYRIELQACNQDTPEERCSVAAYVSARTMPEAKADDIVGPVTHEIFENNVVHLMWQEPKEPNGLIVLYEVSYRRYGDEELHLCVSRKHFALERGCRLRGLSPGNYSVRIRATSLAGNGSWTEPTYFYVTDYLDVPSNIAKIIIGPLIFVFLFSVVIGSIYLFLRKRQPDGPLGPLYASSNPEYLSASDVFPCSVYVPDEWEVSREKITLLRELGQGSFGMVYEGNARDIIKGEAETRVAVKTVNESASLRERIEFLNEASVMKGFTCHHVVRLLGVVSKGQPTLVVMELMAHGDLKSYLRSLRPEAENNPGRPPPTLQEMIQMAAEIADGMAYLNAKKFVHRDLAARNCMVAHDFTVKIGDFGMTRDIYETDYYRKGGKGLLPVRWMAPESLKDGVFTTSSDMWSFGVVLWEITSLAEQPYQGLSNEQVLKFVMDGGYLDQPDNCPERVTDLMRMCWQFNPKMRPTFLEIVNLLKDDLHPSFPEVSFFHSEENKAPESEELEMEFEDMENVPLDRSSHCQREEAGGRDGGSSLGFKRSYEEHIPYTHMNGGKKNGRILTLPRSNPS
T28 sequence (Q9P289 whole entry): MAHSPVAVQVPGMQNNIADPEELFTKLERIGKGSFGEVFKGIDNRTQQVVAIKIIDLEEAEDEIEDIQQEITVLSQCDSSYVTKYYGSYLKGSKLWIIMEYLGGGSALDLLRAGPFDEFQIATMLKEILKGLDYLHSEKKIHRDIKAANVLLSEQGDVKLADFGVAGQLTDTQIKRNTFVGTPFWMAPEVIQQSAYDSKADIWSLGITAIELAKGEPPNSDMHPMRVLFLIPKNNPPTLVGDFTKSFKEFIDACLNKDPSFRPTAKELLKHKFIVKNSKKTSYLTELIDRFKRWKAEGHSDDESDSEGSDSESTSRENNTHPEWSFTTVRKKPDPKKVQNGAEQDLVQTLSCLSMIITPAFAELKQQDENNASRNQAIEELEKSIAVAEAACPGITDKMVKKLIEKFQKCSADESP
T36 sequence (Q8WU08 whole entry): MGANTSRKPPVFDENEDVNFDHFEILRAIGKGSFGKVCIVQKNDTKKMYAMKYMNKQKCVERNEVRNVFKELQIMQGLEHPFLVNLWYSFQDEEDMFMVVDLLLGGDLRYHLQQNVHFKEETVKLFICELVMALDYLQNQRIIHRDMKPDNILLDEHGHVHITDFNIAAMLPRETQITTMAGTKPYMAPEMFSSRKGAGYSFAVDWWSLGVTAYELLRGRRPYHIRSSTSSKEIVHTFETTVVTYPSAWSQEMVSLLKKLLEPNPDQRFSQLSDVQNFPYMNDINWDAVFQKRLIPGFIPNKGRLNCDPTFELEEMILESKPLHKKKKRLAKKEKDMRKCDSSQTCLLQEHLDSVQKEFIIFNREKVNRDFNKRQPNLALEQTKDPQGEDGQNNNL
T22 sequence (Q9NWZ3 whole entry): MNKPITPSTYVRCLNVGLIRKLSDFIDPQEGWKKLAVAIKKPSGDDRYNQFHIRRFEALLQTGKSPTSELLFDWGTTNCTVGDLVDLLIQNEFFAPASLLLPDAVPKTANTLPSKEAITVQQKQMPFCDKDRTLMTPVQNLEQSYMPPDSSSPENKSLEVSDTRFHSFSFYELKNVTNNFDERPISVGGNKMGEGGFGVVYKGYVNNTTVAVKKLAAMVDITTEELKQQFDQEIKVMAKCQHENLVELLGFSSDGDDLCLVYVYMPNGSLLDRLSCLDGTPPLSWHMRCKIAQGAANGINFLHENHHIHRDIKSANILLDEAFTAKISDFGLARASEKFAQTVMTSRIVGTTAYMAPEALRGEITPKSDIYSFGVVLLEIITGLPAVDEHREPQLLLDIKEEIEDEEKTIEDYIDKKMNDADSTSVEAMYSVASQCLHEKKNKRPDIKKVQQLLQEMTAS
T15 sequence (P29320 21-983): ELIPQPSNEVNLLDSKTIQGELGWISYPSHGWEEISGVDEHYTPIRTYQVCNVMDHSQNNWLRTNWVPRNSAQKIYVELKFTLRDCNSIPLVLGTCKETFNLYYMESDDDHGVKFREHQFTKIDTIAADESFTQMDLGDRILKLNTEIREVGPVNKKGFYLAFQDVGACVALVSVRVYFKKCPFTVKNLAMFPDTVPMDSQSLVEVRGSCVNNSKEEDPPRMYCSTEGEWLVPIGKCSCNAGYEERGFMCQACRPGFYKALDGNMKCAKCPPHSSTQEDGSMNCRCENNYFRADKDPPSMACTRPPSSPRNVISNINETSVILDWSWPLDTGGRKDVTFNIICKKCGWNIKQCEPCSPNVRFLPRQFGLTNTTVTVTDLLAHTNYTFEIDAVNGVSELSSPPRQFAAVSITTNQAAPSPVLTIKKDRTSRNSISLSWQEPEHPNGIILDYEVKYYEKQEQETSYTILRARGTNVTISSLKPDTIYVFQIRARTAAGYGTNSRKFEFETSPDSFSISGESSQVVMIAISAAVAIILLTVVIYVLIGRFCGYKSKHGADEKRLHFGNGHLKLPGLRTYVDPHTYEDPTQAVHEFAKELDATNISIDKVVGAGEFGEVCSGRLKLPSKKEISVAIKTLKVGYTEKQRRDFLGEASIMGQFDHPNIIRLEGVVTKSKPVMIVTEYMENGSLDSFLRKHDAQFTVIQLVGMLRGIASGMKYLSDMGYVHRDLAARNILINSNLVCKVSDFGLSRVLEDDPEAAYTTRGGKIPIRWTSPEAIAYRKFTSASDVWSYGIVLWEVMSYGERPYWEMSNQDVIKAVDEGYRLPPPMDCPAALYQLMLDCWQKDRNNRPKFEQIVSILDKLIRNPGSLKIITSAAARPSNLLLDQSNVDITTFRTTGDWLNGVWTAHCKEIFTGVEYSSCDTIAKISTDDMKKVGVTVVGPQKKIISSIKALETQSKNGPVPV
T16 sequence (P54762 18-984): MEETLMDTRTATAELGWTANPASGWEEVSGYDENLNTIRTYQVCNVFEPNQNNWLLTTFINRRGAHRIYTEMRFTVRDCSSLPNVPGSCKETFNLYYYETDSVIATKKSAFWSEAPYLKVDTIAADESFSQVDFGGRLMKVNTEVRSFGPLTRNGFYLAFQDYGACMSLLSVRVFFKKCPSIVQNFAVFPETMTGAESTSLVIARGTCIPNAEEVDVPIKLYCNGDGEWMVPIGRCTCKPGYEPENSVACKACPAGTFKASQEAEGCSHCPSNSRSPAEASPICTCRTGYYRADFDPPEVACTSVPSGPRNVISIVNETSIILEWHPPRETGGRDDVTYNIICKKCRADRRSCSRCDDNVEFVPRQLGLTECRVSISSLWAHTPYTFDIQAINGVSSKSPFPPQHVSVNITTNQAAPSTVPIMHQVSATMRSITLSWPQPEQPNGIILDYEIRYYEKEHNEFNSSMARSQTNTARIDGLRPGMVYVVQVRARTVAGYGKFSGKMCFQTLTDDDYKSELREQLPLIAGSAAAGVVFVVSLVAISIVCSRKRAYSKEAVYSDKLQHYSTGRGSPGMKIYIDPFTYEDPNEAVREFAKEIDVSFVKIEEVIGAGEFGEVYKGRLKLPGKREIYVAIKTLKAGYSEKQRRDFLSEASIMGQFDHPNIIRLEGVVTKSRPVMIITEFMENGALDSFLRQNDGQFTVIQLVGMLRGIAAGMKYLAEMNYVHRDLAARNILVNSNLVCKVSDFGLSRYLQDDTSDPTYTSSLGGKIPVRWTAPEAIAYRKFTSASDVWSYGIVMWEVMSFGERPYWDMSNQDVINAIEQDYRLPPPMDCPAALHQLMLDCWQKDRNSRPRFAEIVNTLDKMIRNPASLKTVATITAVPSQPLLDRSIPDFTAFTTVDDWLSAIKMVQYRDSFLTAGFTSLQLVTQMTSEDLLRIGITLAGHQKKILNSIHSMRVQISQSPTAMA
T5 sequence (P49760 whole entry): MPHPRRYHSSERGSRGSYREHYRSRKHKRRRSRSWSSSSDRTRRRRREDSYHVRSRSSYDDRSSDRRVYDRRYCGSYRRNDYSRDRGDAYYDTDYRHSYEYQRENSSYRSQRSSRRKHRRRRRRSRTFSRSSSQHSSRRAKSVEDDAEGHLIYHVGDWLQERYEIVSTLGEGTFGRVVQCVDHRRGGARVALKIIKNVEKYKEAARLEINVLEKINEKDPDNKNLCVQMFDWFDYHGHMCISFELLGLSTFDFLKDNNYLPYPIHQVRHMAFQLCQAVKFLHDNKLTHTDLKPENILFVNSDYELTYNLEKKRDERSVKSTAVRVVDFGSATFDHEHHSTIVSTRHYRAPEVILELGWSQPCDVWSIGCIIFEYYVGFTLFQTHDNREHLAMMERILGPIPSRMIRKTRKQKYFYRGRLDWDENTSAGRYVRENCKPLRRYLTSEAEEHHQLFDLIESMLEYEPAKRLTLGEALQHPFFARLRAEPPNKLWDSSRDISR

CN(C)Cc1cccc(Nc2ncc(Cl)c(-c3csc(C(=O)NN4CCOCC4)c3)n2)c1 [SKLB-D18, 4-(5-chloro-2-((3-((dimethylamino)methyl)phenyl)amino)pyrimidin-4-yl)-N-morpholinothiophene-2-carboxamide]
inhibition at 1 µM (ALK1(h)): 20%
inhibition at 1 µM (CDK1/cyclinB(h)): 44%
inhibition at 1 µM (CDKL4(h)): 66%
inhibition at 1 µM (CK1ε(h)): 18%
inhibition at 1 µM (CLK2(h)): 58%
inhibition at 1 µM (CLK4(h)): 68%
inhibition at 1 µM (CaMKIIα(h)): -25%
inhibition at 1 µM (CaMKIV(h)): 24%
inhibition at 1 µM (CaMKIγ(h)): 12%
inhibition at 1 µM (CaMKIδ(h)): 47%
inhibition at 1 µM (DCAMKL2(h)): 55%
inhibition at 1 µM (DDR1(h)): 35%
inhibition at 1 µM (DMPK(h)): 8%
inhibition at 1 µM (DYRK3(h)): 49%
inhibition at 1 µM (EphA3(h)): 12%
inhibition at 1 µM (EphB1(h)): 23%
inhibition at 1 µM (Fer(h)): 16%
inhibition at 1 µM (GAK(h)): 78%
inhibition at 1 µM (GRK2(h)): 3%
inhibition at 1 µM (GRK4(h)): 16%
inhibition at 1 µM (IR(h)): 0%
inhibition at 1 µM (IRAK4(h)): 47%
inhibition at 1 µM (JNK1α1(h)): 40%
inhibition at 1 µM (LIMK2(h)): 17%
inhibition at 1 µM (Lck(h)): 63%
inhibition at 1 µM (MEK1(h)): 15%
inhibition at 1 µM (MLK4(h)): 24%
inhibition at 1 µM (MST4(h)): 15%
inhibition at 1 µM (PDGFRβ(h)): 21%
inhibition at 1 µM (PKA(h)): 19%
inhibition at 1 µM (PKCγ(h)): 27%
inhibition at 1 µM (PKCμ(h)): 64%
inhibition at 1 µM (PhKγ2(h)): 19%
inhibition at 1 µM (Rsk1(h)): 51%
inhibition at 1 µM (SLK(h)): 4%
inhibition at 1 µM (STK32A(h)): -3%
inhibition at 1 µM (STK32B(h)): -3%
inhibition at 1 µM (STK32C(h)): 1%
inhibition at 1 µM (TSSK3(h)): 53%
inhibition at 1 µM (ZAK(h)): 5%
inhibition at 1 µM (p70S6Kβ(h)): 15%
